The source of these data is patent US20240261315A1 (Omikron Italia S.r.l., priority 2021, published 2024).

For series [1], the system named is patients affected by open-angle glaucoma. Put plainly: Clinical observation in open-angle glaucoma patients: intraocular pressure (Goldmann tonometry). Particulars: after 6 months of treatment, in addition to hypotensive therapy, 3 patients. It is filed as in vivo, human. The procedure: 12 randomized patients were included in 4 groups: • CIT. GROUP-3 patients treated with citicoline in oral solution 10 ml/die corresponding to 500 mg/die of citicoline, in addition to the hypotensive therapy; • NIC. […] The patients were treated and followed for 6 months. At baseline and after 6 months of treatment complete eye examination including visual acuity, control of the intraocular pressure (IOP) with Goldmann tonometry (GAT); visual field testing, electro-functional and morphological examination were performed.

On the set-up of series [2]: species or system Sprague-Dawley rats. The settings on record: male, Sprague-Dawley, rat, in vivo. The procedure: The bioavailability of citicoline existing in the composition, the invention relates to, was surveyed by making a bioavailability study on Sprague-Dawley rats. In particular, 30 Sprague-Dawley male rats, weighing 175 and 225 g, were subjected fasting 16 hours before administration.
For the preparation of the radiomarked formulations 14C-methylCiticoline and […] were used.
The preparations were purified by ion-exchange chromatography by using isobutyric acid:water-ammonia:EDTA (500:280:21:8), n-butanol:acetic acid:water (12:3:5), ethanol:1 mol/l ammonium acetate pH 7 (5:2), ethanol:saturated borax (8%):0.5 mol/l EDTA:5 mol/l ammonium acetate (220:80:0.5:20).
The samples were analysed with a liquid scintillator counter LSC, according to the programme for ^14C.
For the quantitative analysis Packard soluene (solubilizing agent), H2O2 (bleaching agent) and Packard Instagel (scintillator) were used as reagents.
The formulations were administered at the dose of 5 mg/kg respectively: Group 1, intravenously in the jugular vein; Group 2, in oral solution administered by nasogastric tube; Group 3, in tablets dissolved in saline solution and administered by nasogastric tube.
The collections of blood samples of about […] were obtained at programmed time (after administration at 10′, 20′, 30′, 1 h, 2 h, 3 h, 4 h, 5 h, 6 h, 7 h, 24 h). […]

The subject of the next series is db/db mice. Put plainly: Full field electroretinogram (ffERG) in db/db mice. It counts as in vivo. Particulars: stimuli 10 and 40 cd s/m2, vs Placebo. The source says:
The db/db mice have a mutation in the leptin receptor gene and they are an animal model of retinal neurodegeneration. Such model is useful to mime the pathophysiological events which are found in neurodegenerative pathologies such as glaucoma.
20 db/db […] (BKS.Cg-+Leprdb/+Leprdb/OlaHsd, males, 10 weeks) were randomized in 5 groups and treated for 15 days by oral route with oral solutions based on: • 1. Citicoline 0.5% (Cit.) in 10% lactose solution administered with nasogastric tube (SNG); • 2. […] 10% lactose solution (Placebo) administered with SNG; • 5. Healthy, non-diabetic control (Control).
Through (ii) full field Electroretinogram (ffERG) the electrical activity and then the functionality of the retinal cells were evaluated. The recordings were measured by using ERG platform of Ganzfeld (Phoenix Research Laboratories, Pleasanton, CA, USA) and according to the recommendations of ISCEV (International Society for Clinical Electrophysiology of Vision).

For series [3], the system named is patients affected by open-angle glaucoma. As to the kind of experiment: Clinical observation: visual field testing by automatic perimetry (MD). It counts as in vivo, human. The settings on record: for change in MD: 6 months, vs baseline or not treated group; for MD: after 6 months of treatment, in addition to hypotensive therapy, 3 patients. The method, then: 12 randomized patients were included in 4 groups: • CIT. GROUP-3 patients treated with citicoline in oral solution 10 ml/die corresponding to 500 mg/die of citicoline, in addition to the hypotensive therapy; • NIC. […] The patients were treated and followed for 6 months. At baseline and after 6 months of treatment complete eye examination including visual acuity, control of the intraocular pressure (IOP) with Goldmann tonometry (GAT); visual field testing, electro-functional and morphological examination were performed. (1) The visual field testing was performed with automatic perimetry (HFA, Sita Standard 24-2 protocol; Zeiss, San Leandro, CA, USA). Such analysis represents the gold standard for diagnosis and follow-up of the glaucomatous patient and allows to represent graphically the extension in the space of the visual capability, by measuring even the peripheral vison thereof. Two analyses on each examination were performed and the second test was considered for the analysis. To perform the test, the patients were positioned in front of the instrument. After having rested forehead and chin inside the dome, with the covered unexamined eye, they started to fix a central target and pressed a button whenever they perceived against themselves aluminous stimulus, even if with poor intensity. MD was considered as perimetric index.

The next series relates to visual cortex. Put plainly: Clinical observation: electro-functional test, PEV visual evoked potentials. It counts as in vivo, human. Particulars: after 6 months of treatment, in addition to hypotensive therapy, 3 patients. The method, then: 12 randomized patients were included in 4 groups: • CIT. GROUP-3 patients treated with citicoline in oral solution 10 ml/die corresponding to 500 mg/die of citicoline, in addition to the hypotensive therapy; • NIC. […] The patients were treated and followed for 6 months. At baseline and after 6 months of treatment complete eye examination including visual acuity, control of the intraocular pressure (IOP) with Goldmann tonometry (GAT); visual field testing, electro-functional and morphological examination were performed. Then (2) electro-functional test was performed: electroretinogram from PERG pattern and of the PEV visual evoked potentials to evaluate the bioelectric responses respectively of the retinal ganglion cells and of the visual cortex evoked from the visual stimuli. The patients were positioned in an acoustically insulated semi-dark room, in front of the display surrounded by a uniform field of luminance of 5 cd/m2. […] The signal to PERG and PEV was recorded by a small electrode of Ag/AgCl positioned respectively above the lower eyelid and on the scalp. […] The peak-peak widths were measured at PERG P50-N95 for each wave. […] During a recording session, simultaneous PERG and PEV were recorded at least twice (between two and six times) and the resulting waveforms were overlapped to verify the repeatability of results. […]

For orientation: bioavailability means dose-corrected exposure relative to a reference, in per cent. Lower therefore signals little systemic uptake.

Structures are written as SMILES.

With `NC(=O)c1cccnc1` [Nicotinamide], the IOP in series [1] is given as 14.0 (±2.3)^. The molecule further displayed a bioavailability in series [2] of about 100%. Also, the “reduction in the width of wave b at ERG” value in the series on db/db mice is given as “attenuated with respect to Placebo”. In series [3], the “change in MD” value is on record as “lower reduction in the MD value with respect to the not treated group” and the MD is −8.92 (±2.6)*^. The “PEV P100 IT” value with visual cortex is 119.5 (±7.00) ms.

Turning to `C[N+](C)(C)CCOP(=O)([O-])OP(=O)(O)OC[C@H]1O[C@@H](n2ccc(N)nc2=O)C(O)C1O` (stereo partly drawn) [Citicoline, citidin-5′-difosfocholine], the IOP in series [1] is 13.8 (±1.8). This molecule had a bioavailability in series [2] of about 100%. For the same molecule, the “reduction in the width of wave b at ERG” value in the series on db/db mice is recorded as “attenuated with respect to Placebo”. In addition, in series [3], the “change in MD” value is reported as “significant improvement in MD with respect to the baseline” and the MD is recorded as −8.70 (±2.8). In the series with visual cortex, the “PEV P100 IT” value was 119.1 (±7.22) ms.
